Experiments:
Test in all cases: NCI-60 screen (SRB)
Assay type in all cases: cell-based
A549/ATCC = A549/ATCC (Non-Small Cell Lung)
Description: (§1) The human tumor cell lines of the cancer screening panel are grown in RPMI 1640 medium containing 5% fetal bovine serum and 2 mM L-glutamine. For a typical screening experiment, cells are inoculated into 96 well microtiter plates in 100 μL at plating densities ranging from 5,000 to 40,000 cells/well depending on the doubling time of individual cell lines. After cell inoculation, the microtiter plates are incubated at 37° C., 5% CO2, 95% air and 100% relative humidity for 24 h prior to addition of experimental drugs.
(§2) After 24 h, two plates of each cell line are fixed in situ with TCA, to represent a measurement of the cell population for each cell line at the time of drug addition (Tz). Experimental drug is solubilized in dimethyl sulfoxide at 400-fold the desired final maximum test concentration and stored frozen prior to use. At the time of drug addition, an aliquot of frozen concentrate is thawed and diluted to twice the desired final maximum test concentration with complete medium containing 50 μg/ml gentamicin. Additional four, 10-fold or ½ log serial dilutions are made to provide a total of five drug concentrations plus control. Aliquots of 100 μl of these different drug dilutions are added to the appropriate microtiter wells already containing 100 μl of medium, resulting in the required final drug concentrations.
(§3) Following drug addition, the plates are incubated for an additional 48 h at 37° C., 5% CO2, 95% air, and 100% relative humidity. For adherent cells, the assay is terminated by the addition of cold TCA. Cells are fixed in situ by the gentle addition of 50 μl of cold 50% (w/v) TCA (final concentration, 10% TCA) and incubated for 60 minutes at 4° C. The supernatant is discarded, and the plates are washed five times with tap water and air dried. Sulforhodamine B (SRB) solution (100 μl) at 0.4% (w/v) in 1% acetic acid is added to each well, and plates are incubated for 10 minutes at room temperature. After staining, unbound dye is removed by washing five times with 1% acetic acid and the plates are air dried. Bound stain is subsequently solubilized with 10 mM trizma base, and the absorbance is read on an automated plate reader at a wavelength of 515 nm. For suspension cells, the methodology is the same except that the assay is terminated by fixing settled cells at the bottom of the wells by gently adding 50 μl of 80% TCA (final concentration, 16% TCA). Using the seven absorbance measurements [time zero, (Tz), control growth, (C), and test growth in the presence of drug at the five concentration levels (Ti)], the percentage growth is calculated at each of the drug concentrations levels.
(§4) Percentage growth inhibition is calculated as: [(Ti−Tz)/(C−Tz)]×100 for concentrations for which Ti>/=Tz (1) [(Ti−Tz)/Tz]×100 for concentrations for which Ti<Tz (2)
(§5) Growth inhibition of 50% (GI50) is calculated from [(Ti−Tz)/(C−Tz)]×100=50 (3)
(§6) which is the drug concentration resulting in a 50% reduction in the net protein increase (as measured by SRB staining) in control cells during the drug incubation.
(§7) The drug concentration resulting in total growth inhibition (TGI) is calculated from Ti=Tz (4)
(§8) The LC50 (concentration of drug resulting in a 50% reduction in the measured protein at the end of the drug treatment as compared to that at the beginning) indicating a net loss of cells following treatment is calculated from [(Ti−Tz)/Tz]×100=−50 (5)
(§9) Values are calculated for each of these three parameters if the level of activity is reached; however, if the effect is not reached or is exceeded, the value for that parameter is expressed as greater or less than the maximum or minimum concentration tested.

CCRF-CEM = CCRF-CEM (Leukemia)
Description: as §1, §2, §3, §4, §5, §6, §7, §8, §9

Colo205 = details: COLO205 (Colon)
Description: as §1, §2, §3, §4, §5, §6, §7, §8, §9

HCC-2998 = HCC-2998 (Colon)
Description: as §1, §2, §3, §4, §5, §6, §7, §8, §9

HOP-92 = HOP-92 (Non-Small Cell Lung)
Description: as §1, §2, §3, §4, §5, §6, §7, §8, §9

HS 578T = HS 578T (Breast)
Description: as §1, §2, §3, §4, §5, §6, §7, §8, §9

HT29 = HT29 (Colon)
Description: as §1, §2, §3, §4, §5, §6, §7, §8, §9

LOX IMVI = LOX IMVI (Melanoma)
Description: as §1, §2, §3, §4, §5, §6, §7, §8, §9

NCI-H23 = NCI-H23 (Non-Small Cell Lung)
Description: as §1, §2, §3, §4, §5, §6, §7, §8, §9

SF-268 = SF-268 (CNS)
Description: as §1, §2, §3, §4, §5, §6, §7, §8, §9

SF-539 = SF-539 (CNS)
Description: as §1, §2, §3, §4, §5, §6, §7, §8, §9

SK-MEL-28 = SK-MEL-28 (Melanoma)
Description: as §1, §2, §3, §4, §5, §6, §7, §8, §9

SK-MEL-5 = SK-MEL-5 (Melanoma)
Description: as §1, §2, §3, §4, §5, §6, §7, §8, §9

SN12C = SN12C (Renal)
Description: as §1, §2, §3, §4, §5, §6, §7, §8, §9

SNB-75 = SNB-75 (CNS)
Description: as §1, §2, §3, §4, §5, §6, §7, §8, §9

T-47D = T-47D (Breast)
Description: as §1, §2, §3, §4, §5, §6, §7, §8, §9

UACC-257 = UACC-257 (Melanoma)
Description: as §1, §2, §3, §4, §5, §6, §7, §8, §9

[1] = Homo sapiens, read-out: LC50 (the source's name)

Question: With `CCN(CC)C1CCN(C(C)c2cc(-c3ccccc3)nc3ccccc23)CC1.Cl.Cl` (centres unmarked) [XIX-3, 2-phenyl-4-{1-[4-(N,N-diethylamino)piperidin-1-yl]-eth-1-yl}quinoline dihydrochloride] as the compound, how does the TGI (A549/ATCC) read?
Answer: 31 µM

Question: And the “Growth percent at 10 μM” value (A549/ATCC; 10 μM)?
Answer: + (cell growth 60 > % < 80)

Question: What about the GI50 (A549/ATCC; Homo sapiens) of the same compound?
Answer: 15 µM

Question: What about the CC50 (A549/ATCC; [1]) of the same compound?
Answer: 63 µM

Question: What about the TGI (CCRF-CEM) of the same compound?
Answer: 25 µM

Question: And the “Growth percent at 10 μM” value (CCRF-CEM; 10 μM)?
Answer: ++ (cell growth 40 > % < 60)

Question: What about the GI50 (CCRF-CEM; Homo sapiens) of the same compound?
Answer: 9 µM

Question: What about the CC50 (CCRF-CEM; [1]) of the same compound?
Answer: 62 µM

Question: What about the TGI (Colo205) of the same compound?
Answer: 4 µM

Question: And the “Growth percent at 10 μM” value (Colo205; 10 μM)?
Answer: ××× (cell growth −40 > % < −60)

Question: What about the GI50 (Colo205; Homo sapiens, COLO 205) of the same compound?
Answer: 2 µM

Question: And the CC50 (Colo205; Homo sapiens, COLO 205, read-out: LC50 (the source's name))?
Answer: 7 µM

Question: And the TGI (HCC-2998)?
Answer: 13 µM

Question: And the “Growth percent at 10 μM” value (HCC-2998; 10 μM)?
Answer: ++ (cell growth 40 > % < 60)

Question: What about the GI50 (HCC-2998; Homo sapiens) of the same compound?
Answer: 4 µM

Question: And the CC50 (HCC-2998; [1])?
Answer: 44 µM

Question: And the TGI (HOP-92)?
Answer: 17 µM

Question: What about the “Growth percent at 10 μM” value (HOP-92; 10 μM) of the same compound?
Answer: ++ (cell growth 40 > % < 60)

Question: What about the GI50 (HOP-92; Homo sapiens) of the same compound?
Answer: 3 µM

Question: And the CC50 (HOP-92; [1])?
Answer: 47 µM

Question: What about the TGI (HS 578T) of the same compound?
Answer: 35 µM

Question: What about the “Growth percent at 10 μM” value (HS 578T; 10 μM) of the same compound?
Answer: + (cell growth 60 > % < 80)

Question: And the GI50 (HS 578T; Homo sapiens)?
Answer: 11 µM

Question: And the LC50 (concentration killing 50% of cells) (HS 578T; Homo sapiens)?
Answer: 100 µM

Question: What about the TGI (HT29) of the same compound?
Answer: 7 µM

Question: And the “Growth percent at 10 μM” value (HT29; 10 μM)?
Answer: ++++ (cell growth % < 20)

Question: What about the GI50 (HT29; Homo sapiens, HT-29) of the same compound?
Answer: 2 µM

Question: And the CC50 (HT29; Homo sapiens, HT-29, read-out: LC50 (the source's name))?
Answer: 32 µM

Question: And the GI50 (LOX IMVI; Homo sapiens)?
Answer: 4 µM

Question: What about the CC50 (LOX IMVI; [1]) of the same compound?
Answer: 44 µM

Question: And the TGI (LOX IMVI)?
Answer: 15 µM

Question: And the “Growth percent at 10 μM” value (LOX IMVI; 10 μM)?
Answer: ++ (cell growth 40 > % < 60)

Question: What about the GI50 (NCI-H23; Homo sapiens) of the same compound?
Answer: > 100 µM

Question: What about the CC50 (NCI-H23; [1]) of the same compound?
Answer: > 100 µM

Question: What about the TGI (NCI-H23) of the same compound?
Answer: >100 µM

Question: What about the “Growth percent at 10 μM” value (NCI-H23; 10 μM) of the same compound?
Answer: − (cell growth % > 80)

Question: And the GI50 (SF-268; Homo sapiens)?
Answer: 10 µM

Question: And the CC50 (SF-268; [1])?
Answer: 55 µM

Question: What about the TGI (SF-268) of the same compound?
Answer: 24 µM

Question: What about the “Growth percent at 10 μM” value (SF-268; 10 μM) of the same compound?
Answer: + (cell growth 60 > % < 80)

Question: What about the GI50 (SF-539; Homo sapiens) of the same compound?
Answer: 11 µM

Question: And the CC50 (SF-539; [1])?
Answer: 50 µM

Question: And the TGI (SF-539)?
Answer: 23 µM

Question: What about the “Growth percent at 10 μM” value (SF-539; 10 μM) of the same compound?
Answer: ++ (cell growth 40 > % < 60)

Question: What about the GI50 (SK-MEL-28; Homo sapiens) of the same compound?
Answer: 2 µM

Question: And the CC50 (SK-MEL-28; [1])?
Answer: 6 µM

Question: And the TGI (SK-MEL-28)?
Answer: 3 µM

Question: What about the “Growth percent at 10 μM” value (SK-MEL-28; 10 μM) of the same compound?
Answer: ××× (cell growth −40 > % < −60)

Question: And the GI50 (SK-MEL-5; Homo sapiens)?
Answer: 2 µM

Question: And the CC50 (SK-MEL-5; [1])?
Answer: 6 µM

Question: And the TGI (SK-MEL-5)?
Answer: 3 µM

Question: And the “Growth percent at 10 μM” value (SK-MEL-5; 10 μM)?
Answer: ××××× (cell growth % < −80)

Question: What about the GI50 (SN12C; Homo sapiens) of the same compound?
Answer: 12 µM

Question: And the LC50 (concentration giving 50% net cell kill) (SN12C; Homo sapiens)?
Answer: 26 µM

Question: What about the TGI (SN12C) of the same compound?
Answer: 26 µM

Question: And the “Growth percent at 10 μM” value (SN12C; 10 μM)?
Answer: + (cell growth 60 > % < 80)

Question: And the GI50 (SNB-75; Homo sapiens)?
Answer: 12 µM

Question: And the CC50 (SNB-75; [1])?
Answer: 55 µM

Question: And the TGI (SNB-75)?
Answer: 26 µM

Question: What about the “Growth percent at 10 μM” value (SNB-75; 10 μM) of the same compound?
Answer: +++ (cell growth 20 > % < 40)

Question: And the GI50 (T-47D; Homo sapiens, T47D)?
Answer: 5 µM

Question: What about the CC50 (T-47D; Homo sapiens, T47D, read-out: LC50 (the source's name)) of the same compound?
Answer: 52 µM

Question: And the TGI (T-47D)?
Answer: 19 µM

Question: What about the “Growth percent at 10 μM” value (T-47D; 10 μM) of the same compound?
Answer: ++ (cell growth 40 > % < 60)

Question: And the GI50 (UACC-257; Homo sapiens)?
Answer: 2 µM

Question: What about the CC50 (UACC-257; [1]) of the same compound?
Answer: 8 µM

Question: What about the TGI (UACC-257) of the same compound?
Answer: 4 µM

Question: And the “Growth percent at 10 μM” value (UACC-257; 10 μM)?
Answer: ××× (cell growth −40 > % < −60)

— US10179770B2, “Quinolines derivatives as novel anticancer agents” (GENOSCIENCE PHARMA, priority 2013, dated 2019)
